Results taken from patent US8829196B2, “TRPA1 antagonists” (Merck Sharp & Dohme Corp., priority 2009, dated 2014).

Molecular target: T1, human TRPA1 (Homo sapiens, UniProt O75762, K186N/R3C/R58T)
T1 construct: host or cells: HEK293 FlpIn
Assay: High Throughput Calcium Imaging Assay (FLIPR, cinnamaldehyde-activated Ca2+ influx)
Assay type: cell-based
Settings: HEK293 FlpIn cells stably expressing human TRPA1; EC60 cinnamaldehyde; Fluo-4AM; read-out: TRPA1 hFLIPR IC50
Text: The assay was dependent on detecting the change in intracellular Ca2+ concentration following activation of the channel in cells stably expressing the TRPA1 channel. Activation of the TRPA1 channel was followed by Ca2+ influx. Ca2+ increase was quantified through the use of a fluorescent Ca2+ indicator that was loaded into the cells. Compounds which inhibited Ca2+ increase were considered “hits” warranting additional examination.
The HEK293 FlpIn cell line (Invitrogen) was stably transfected as per the manufacturers guidelines with a construct encoding a human TRPA1 protein with the amino acid sequence depicted in SEQ ID NO: 1. The resulting cell line was maintained in the growth medium recommended by the manufacturer and supplemented with 100 ug/mL Hygromycin B to promote the selection of cells stably expressing the TRPA1 channel. After growing to confluency, cells were plated at a density of 24,000 cells/well in 384 well Black/Clear Microtest plates (Falcon) in the recommended growth medium supplemented with hygromycin, and allowed to grow for 20-24 hours resulting in a ˜90% confluent monolayer of cells. Cells were then loaded with assay buffer containing the Ca2+ dye Fluo-4AM (Invitrogen) to a final concentration of 4 uM, and incubated for 60 minutes at room temperature in the dark. The assay buffer consisted of 138 mM NaCl, 5.33 mM KCl, 1.26 mM CaCl2, 0.49 mM MgCl2, 0.41 mM MgSO4 5.56 mM D-glucose, 0.44 mM KH2PO4, 0.34 mM Na2HPO4, 20 mM HEPES, 2.5 mM Probenecid, and 4% TR-40; pH 7.8. Following 1 hour dye loading, cells were assayed using the FLIPR TETRA (Molecular Devices) which permits excitation of the Fluo-4AM dye, and subsequent recording of emission spectra according to the manufacturer's guidelines. A total of 5 baseline readings were acquired prior to each reagent addition, after which, readings were acquired at a rate of 1 every 3 seconds for 195 seconds, and then 1 every 10 seconds for an additional 420 seconds. During the assay, reagents were added and mixed after each addition by the FLIPR TETRA pippetor. EC60 concentration of Cinnamaldehyde was determined before the screening assay, and used as the activating concentration henceforth. For the screening assay, the baseline reading was taken, followed by addition of 10 uL of a compound stock at six-times the final concentration, followed by 615 seconds of read time as previously described. Following baseline readings, 10 μl, of six-times final concentration Cinnamaldehyde was added to each well, achieving a final concentration of 10 uM compound, and on average, 12 uM Cinnamaldehyde (depending on the EC60 derived during that experiment). Following addition of Cinnamaldehyde, readings were taken for 615 seconds as previously described. Negative controls consisted of HEK293 FlpIn TRPA1 cells exposed to compound vehicle and then Cinnamaldehyde. […] “Hits” were identified as compounds which inhibited the fluorescence response in the presence of Cinnamaldehyde as compared to the negative and positive controls. IC50 values were determined for compounds defined as “hits” which reached fully inhibition. This cell-based fluorescence assay was used to determine Ca2+ influx through the channel in the presence of compound at the following concentrations: 10 uM, 3.33 uM, 1.11 uM, 0.37 uM, 0.12 uM, 0.041 uM, 0.014 uM, 0.0046 uM, 0.0015 uM, and 0.00051 uM.

T1 sequence (O75762 whole entry R3C/R58T/K186N): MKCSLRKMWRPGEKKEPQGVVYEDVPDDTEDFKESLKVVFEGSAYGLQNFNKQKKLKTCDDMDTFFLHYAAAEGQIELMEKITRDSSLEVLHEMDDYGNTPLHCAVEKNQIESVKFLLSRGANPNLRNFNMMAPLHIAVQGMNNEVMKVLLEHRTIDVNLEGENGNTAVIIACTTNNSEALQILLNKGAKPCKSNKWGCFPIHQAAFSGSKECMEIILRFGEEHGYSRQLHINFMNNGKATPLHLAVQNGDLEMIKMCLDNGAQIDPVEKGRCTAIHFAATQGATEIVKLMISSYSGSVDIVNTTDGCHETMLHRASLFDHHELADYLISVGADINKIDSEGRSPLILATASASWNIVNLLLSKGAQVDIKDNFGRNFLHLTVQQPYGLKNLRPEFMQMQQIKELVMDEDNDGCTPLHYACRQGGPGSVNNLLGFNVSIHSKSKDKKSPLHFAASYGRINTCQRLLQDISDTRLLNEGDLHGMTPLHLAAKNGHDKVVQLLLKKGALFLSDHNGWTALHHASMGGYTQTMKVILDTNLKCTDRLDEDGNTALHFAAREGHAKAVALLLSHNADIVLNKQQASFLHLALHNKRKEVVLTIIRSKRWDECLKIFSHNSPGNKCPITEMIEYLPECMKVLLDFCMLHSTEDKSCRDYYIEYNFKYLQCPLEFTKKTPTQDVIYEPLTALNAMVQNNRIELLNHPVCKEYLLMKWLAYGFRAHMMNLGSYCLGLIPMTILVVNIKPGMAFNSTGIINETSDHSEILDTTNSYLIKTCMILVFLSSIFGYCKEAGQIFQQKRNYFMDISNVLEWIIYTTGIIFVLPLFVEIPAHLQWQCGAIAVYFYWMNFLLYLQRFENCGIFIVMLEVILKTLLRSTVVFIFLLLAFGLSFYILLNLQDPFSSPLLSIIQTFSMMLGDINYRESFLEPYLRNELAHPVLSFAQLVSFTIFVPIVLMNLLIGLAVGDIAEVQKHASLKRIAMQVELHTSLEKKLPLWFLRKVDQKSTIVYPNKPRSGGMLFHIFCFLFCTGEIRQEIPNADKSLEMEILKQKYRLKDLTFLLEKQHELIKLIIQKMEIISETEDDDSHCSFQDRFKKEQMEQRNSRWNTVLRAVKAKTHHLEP

SMILES | IC50 [nM]
O[C@@]12CCCO[C@H]1CCC[C@@H]2Nc1ccc(F)cc1 (stereo in doubt) [(4aR,5S,8aS)-5-[(4-fluorophenyl)amino]hexahydro-2H-chromen-4a(5H)-ol] | 850
O[C@]12CCCO[C@H]1CCC[C@H]2Nc1ccc(F)cc1 [(4aS,5R,8aS)-5-[(4-fluorophenyl)amino]hexahydro-2H-chromen-4a(5H)-ol] | 520
COC[C@@H]1CCC(Nc2ccc(F)cc2)C2(O)CCCO[C@H]12 (stereo in doubt) [(4aR,5S)-5-[(4-fluorophenyl)amino]-8-(methoxymethyl)hexahydro-2H-chromen-4a(5H)-ol] | 35
O[C@]12CCCC[C@@H]1CCC[C@H]2Nc1ccccc1 [(4R,4aR,8aR)-4-(phenylamino)octahydronaphthalen-4a(2H)-ol] | 54
O[C@]12CCCC[C@@H]1CCC[C@H]2Nc1ccc(F)cc1 [(4aR,8aR)-4-[(4-fluorophenyl)amino]octahydronaphthalen-4a(2H)-ol] | 19
